Active and inactive are the calls of the source.
Tests used:
[1] = target: Steroidogenic factor 1 (Homo sapiens, UniProt Q13285); test: Counterscreen for inverse agonists of the liver receptor homolog-1 (LRH-1; NR5A2): Luminescence-based cell-based high throughput dose response assay to identify inverse agonists of the Steroidogenic Factor 1 Nuclear Receptor (SF1; NR5A1).; assay type: functional
[2] = target: Nuclear receptor subfamily 5 group A member 2 (Homo sapiens, UniProt O00482); assay type: functional, cell-based;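 note: HEK293T cells transfected with LRH-1 and a StAR promoter luciferase reporter; potency for inhibitors that lower LRH-1 driven reporter light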
Chain of Nuclear receptor subfamily 5 group A member 2 (O00482 whole entry): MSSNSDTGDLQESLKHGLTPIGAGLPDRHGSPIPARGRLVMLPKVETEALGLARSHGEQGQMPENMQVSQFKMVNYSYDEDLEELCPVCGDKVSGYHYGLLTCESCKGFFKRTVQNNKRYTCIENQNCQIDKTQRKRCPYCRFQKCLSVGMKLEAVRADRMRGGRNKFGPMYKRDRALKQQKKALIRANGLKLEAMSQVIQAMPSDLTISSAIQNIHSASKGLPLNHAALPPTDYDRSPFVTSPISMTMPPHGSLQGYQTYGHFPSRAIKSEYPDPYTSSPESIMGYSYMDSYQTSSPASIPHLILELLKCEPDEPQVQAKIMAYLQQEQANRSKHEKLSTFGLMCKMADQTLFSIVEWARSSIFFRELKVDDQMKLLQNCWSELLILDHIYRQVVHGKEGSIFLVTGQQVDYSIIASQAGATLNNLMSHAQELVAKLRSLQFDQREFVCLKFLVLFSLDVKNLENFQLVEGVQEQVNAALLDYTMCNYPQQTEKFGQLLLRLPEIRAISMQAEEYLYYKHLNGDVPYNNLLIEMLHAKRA

[3] = StAR promoter reporter inhibition counter-screen, dose response, counter-screen for LRH-1 inverse agonist project, cell-based, luminescence, luciferase reporter (AID 651969); assay type: functional
[4] = target: Long-chain-fatty-acid--AMP ligase FadD28 (Mycobacterium tuberculosis, UniProt P9WQ59); test: Fluorescence polarization aasay to screen for inhibitors that compete for the binding of FadD28 to a bisubstrate Measured in Biochemical System Using Plate Reader - 2147-01_Inhibitor_Dose_CherryPick_Activity.; assay type: functional, Mycobacterium tuberculosis H37Rv
Chain of Long-chain-fatty-acid--AMP ligase FadD28 (P9WQ59 whole entry): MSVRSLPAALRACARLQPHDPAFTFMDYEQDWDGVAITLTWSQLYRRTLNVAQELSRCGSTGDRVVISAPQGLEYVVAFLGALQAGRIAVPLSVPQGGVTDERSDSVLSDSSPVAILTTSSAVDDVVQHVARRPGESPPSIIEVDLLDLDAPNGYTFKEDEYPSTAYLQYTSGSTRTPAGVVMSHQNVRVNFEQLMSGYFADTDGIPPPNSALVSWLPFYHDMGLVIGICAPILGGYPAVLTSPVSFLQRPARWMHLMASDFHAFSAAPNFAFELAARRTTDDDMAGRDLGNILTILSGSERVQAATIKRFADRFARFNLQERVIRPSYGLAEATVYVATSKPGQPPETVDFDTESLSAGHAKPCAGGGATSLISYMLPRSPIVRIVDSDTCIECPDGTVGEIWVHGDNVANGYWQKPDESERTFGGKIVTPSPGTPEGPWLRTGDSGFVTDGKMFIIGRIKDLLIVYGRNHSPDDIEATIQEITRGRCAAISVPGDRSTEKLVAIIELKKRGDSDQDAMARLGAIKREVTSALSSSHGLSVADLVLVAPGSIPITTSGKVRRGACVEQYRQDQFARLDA

[5] = target: Dual specificity tyrosine-phosphorylation-regulated kinase 1A (Rattus norvegicus, UniProt Q63470); assay type: biochemical, Homo sapiens
[6] = target: Protein Wnt-3a (Mus musculus, UniProt P27467); test: SAR analysis of small molecule antagonists of Gli-SUFU in a Wnt3a luminescent reporter assay.; assay type: functional
Chain of Protein Wnt-3a (P27467 whole entry): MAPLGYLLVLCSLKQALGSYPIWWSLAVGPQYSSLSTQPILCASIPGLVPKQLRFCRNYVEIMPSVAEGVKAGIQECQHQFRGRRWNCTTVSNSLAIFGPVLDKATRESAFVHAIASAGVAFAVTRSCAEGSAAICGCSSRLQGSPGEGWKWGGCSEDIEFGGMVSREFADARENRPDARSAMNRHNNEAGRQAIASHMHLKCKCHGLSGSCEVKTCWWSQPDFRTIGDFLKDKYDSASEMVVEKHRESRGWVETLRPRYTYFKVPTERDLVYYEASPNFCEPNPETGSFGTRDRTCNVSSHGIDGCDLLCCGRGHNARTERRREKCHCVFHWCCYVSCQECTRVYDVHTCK

[7] = Counterscreen for activators of the function of SWI/SNF related, matrix associated, actin dependent regulator of chromatin, subfamily a, member 2 (SMARCA2, BRM): Luminescence-based cell-based high throughput dose response assay to identify non-selective compounds using the VP16 reporter assay.; assay type: functional
[8] = target: Kallikrein-7 (Homo sapiens, UniProt P49862); test: Fluorescence Intensity-based biochemical primary high throughput dose response assay to identify activators of kallikrein-7 (K7) zymogen.
Chain of Kallikrein-7 (P49862 whole entry): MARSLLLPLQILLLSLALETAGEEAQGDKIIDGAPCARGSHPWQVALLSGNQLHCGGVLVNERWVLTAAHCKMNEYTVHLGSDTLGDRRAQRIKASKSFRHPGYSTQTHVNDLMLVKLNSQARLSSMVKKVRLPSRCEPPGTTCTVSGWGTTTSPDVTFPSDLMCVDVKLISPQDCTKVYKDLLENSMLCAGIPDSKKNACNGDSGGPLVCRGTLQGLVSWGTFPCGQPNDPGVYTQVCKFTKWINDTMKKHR

[9] = target: T1, Rac GTPase-activating protein 1 (Homo sapiens, UniProt Q9H0H5); test: MgcRacGAP GTPase-activating activity inhibitors, confirmation, biochemical, ADP Hunter fluorescence, primary and confirmatory (AID 624330); assay type: functional
T1 sequence (Q9H0H5 whole entry): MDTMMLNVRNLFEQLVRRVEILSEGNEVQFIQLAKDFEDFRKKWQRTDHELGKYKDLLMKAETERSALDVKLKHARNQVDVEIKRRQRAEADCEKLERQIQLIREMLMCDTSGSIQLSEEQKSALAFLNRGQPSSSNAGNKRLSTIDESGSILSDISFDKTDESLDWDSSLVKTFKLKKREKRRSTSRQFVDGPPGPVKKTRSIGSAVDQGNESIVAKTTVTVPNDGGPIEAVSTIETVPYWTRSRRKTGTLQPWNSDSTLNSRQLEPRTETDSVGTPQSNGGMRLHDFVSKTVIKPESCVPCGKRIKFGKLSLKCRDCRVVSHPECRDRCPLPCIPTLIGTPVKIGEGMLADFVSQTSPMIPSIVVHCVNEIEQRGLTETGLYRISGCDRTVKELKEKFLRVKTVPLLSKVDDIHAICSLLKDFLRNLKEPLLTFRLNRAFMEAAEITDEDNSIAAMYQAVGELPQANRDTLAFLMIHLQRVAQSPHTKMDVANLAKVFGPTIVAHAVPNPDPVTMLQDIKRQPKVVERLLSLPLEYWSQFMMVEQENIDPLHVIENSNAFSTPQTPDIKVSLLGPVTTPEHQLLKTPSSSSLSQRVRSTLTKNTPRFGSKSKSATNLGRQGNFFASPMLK

[10] = target: T2, DNA repair protein RAD52 homolog (Homo sapiens, UniProt P43351); assay type: functional, biochemical
T2 sequence (P43351 whole entry): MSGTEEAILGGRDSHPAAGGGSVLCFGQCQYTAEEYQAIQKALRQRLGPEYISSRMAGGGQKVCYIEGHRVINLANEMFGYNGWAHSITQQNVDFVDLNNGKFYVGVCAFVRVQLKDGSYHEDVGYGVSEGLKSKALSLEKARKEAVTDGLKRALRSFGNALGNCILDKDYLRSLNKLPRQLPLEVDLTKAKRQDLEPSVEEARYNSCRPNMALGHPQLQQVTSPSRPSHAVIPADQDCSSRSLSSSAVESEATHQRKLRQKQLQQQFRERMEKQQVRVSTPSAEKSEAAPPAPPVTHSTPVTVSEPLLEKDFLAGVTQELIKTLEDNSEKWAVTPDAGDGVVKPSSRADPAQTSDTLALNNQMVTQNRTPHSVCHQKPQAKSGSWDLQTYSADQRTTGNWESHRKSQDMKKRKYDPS

[11] = target: SWI/SNF-related matrix-associated actin-dependent regulator of chromatin subfamily A member 2 (Homo sapiens, UniProt P51531); test: Luminescence-based cell-based high throughput dose response assay to identify activators of the function of SWI/SNF related, matrix associated, actin dependent regulator of chromatin, subfamily a, member 2 (SMARCA2, BRM).; assay type: functional
Chain of SWI/SNF-related matrix-associated actin-dependent regulator of chromatin subfamily A member 2 (P51531 whole entry): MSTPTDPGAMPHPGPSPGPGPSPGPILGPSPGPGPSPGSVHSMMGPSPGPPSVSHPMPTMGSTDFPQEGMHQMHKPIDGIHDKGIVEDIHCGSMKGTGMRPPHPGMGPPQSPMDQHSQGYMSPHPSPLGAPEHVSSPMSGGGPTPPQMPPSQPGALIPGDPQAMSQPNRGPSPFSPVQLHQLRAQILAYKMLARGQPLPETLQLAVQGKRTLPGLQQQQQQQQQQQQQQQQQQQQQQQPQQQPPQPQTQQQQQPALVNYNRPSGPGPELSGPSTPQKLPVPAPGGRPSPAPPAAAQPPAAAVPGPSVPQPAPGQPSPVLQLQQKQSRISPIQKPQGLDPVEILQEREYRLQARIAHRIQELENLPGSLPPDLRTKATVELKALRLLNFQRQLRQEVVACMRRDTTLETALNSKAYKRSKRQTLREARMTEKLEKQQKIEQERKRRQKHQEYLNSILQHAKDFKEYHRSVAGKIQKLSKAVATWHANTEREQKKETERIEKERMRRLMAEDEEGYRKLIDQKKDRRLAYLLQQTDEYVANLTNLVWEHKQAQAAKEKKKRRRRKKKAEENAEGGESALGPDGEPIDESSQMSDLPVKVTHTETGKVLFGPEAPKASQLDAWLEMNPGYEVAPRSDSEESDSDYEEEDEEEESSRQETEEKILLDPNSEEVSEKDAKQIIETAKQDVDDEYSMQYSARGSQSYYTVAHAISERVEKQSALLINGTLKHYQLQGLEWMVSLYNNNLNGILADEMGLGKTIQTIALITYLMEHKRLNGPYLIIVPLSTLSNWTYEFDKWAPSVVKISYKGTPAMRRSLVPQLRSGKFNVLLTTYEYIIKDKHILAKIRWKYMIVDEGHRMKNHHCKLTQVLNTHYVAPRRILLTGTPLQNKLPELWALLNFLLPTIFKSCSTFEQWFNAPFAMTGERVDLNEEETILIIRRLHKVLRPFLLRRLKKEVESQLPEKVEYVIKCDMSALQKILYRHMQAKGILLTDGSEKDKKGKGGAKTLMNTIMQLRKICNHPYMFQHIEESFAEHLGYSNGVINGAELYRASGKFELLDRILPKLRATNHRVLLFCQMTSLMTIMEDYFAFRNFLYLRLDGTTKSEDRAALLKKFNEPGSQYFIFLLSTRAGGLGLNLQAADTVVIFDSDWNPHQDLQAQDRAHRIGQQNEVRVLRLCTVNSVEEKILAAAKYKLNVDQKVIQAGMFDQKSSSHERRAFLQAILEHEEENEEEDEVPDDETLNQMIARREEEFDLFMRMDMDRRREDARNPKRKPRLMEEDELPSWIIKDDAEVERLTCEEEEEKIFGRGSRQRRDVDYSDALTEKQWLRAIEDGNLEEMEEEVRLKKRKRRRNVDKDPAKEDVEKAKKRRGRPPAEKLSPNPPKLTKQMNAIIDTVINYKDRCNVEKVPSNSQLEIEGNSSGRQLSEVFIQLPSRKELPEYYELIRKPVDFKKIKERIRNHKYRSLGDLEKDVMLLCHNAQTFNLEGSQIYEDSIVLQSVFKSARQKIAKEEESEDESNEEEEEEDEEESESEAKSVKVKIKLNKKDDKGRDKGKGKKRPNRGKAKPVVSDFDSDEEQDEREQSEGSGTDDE

[12] = target: Cytochrome P450 2C19 (Homo sapiens, UniProt P33261); test: Cytochrome panel assay with activity outcomes. Panel member name: p450-cyp2c19 Compounds with AC50 equal or less than 10 uM are considered active; assay type: functional; settings: read-out: AC50
Chain of Cytochrome P450 2C19 (P33261 whole entry): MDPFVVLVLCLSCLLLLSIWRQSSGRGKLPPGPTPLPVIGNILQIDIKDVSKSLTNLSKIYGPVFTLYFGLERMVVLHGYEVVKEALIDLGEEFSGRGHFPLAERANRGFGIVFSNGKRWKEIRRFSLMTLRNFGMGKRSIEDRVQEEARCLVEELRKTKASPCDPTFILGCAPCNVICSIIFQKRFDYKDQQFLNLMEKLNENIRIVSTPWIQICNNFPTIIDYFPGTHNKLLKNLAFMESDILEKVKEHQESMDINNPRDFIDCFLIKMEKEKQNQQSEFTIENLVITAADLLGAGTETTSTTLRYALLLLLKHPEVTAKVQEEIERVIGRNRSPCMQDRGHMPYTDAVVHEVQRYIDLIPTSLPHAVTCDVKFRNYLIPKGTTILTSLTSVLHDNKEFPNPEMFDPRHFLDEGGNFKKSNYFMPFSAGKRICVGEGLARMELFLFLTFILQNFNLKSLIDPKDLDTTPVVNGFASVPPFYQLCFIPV

[13] = target: Glucose-6-phosphate 1-dehydrogenase (Homo sapiens, UniProt P11413); test: human G6PD enzyme inhibitors, dose response, selectivity assay for P. falciparum G6PD inhibitor project, biochemical, fluorescence (AID 504792); assay type: functional
Chain of Glucose-6-phosphate 1-dehydrogenase (P11413 whole entry): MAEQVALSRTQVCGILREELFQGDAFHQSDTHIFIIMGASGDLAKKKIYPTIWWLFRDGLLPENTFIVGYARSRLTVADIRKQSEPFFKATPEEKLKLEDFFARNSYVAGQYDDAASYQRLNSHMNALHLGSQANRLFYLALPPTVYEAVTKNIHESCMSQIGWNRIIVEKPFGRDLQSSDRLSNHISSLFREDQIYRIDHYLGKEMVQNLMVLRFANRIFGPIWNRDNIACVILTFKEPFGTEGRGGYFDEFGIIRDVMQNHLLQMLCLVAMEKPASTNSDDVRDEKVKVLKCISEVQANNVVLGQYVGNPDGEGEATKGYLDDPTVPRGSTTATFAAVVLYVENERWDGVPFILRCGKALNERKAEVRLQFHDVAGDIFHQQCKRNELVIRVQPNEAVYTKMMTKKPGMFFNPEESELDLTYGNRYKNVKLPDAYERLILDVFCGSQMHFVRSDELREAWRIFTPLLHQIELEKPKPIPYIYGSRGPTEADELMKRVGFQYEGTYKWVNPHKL

[14] = HeLa cell cytotoxicity, dose response, cytotoxicity control for MgcRacGAP inhibitor project (AID 624300); assay type: functional

Chain of Steroidogenic factor 1 (Q13285 whole entry): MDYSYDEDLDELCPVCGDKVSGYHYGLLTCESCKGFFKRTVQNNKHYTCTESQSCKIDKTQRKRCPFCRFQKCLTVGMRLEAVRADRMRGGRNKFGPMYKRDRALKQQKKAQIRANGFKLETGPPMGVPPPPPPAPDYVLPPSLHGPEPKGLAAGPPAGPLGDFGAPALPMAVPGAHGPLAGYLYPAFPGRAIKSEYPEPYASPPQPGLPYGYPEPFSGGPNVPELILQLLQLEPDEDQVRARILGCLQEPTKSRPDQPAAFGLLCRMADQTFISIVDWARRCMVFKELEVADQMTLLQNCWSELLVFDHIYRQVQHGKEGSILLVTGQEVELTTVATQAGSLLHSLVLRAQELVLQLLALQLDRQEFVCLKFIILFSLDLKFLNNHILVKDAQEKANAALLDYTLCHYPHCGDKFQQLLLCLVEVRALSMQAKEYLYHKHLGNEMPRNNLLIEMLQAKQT

Structure (SMILES) | IC50 [1] | IC50 [2] | IC50 [3] | AC50 [5] | IC50 [6] | also measured
Cc1ccc(-c2nn3c(C)nnc3s2)cc1NC(=O)c1cccs1 | 0.684 µM (active) | 1.13 µM (active) | 35.9 µM (inactive) | – | – | –
COc1cccc(/C=N/n2c(S)nnc2C2CCCCC2)c1O | – | – | – | 6.14 µM (active) | – | AC50 [4]: 16.8 µM (active)
Cc1ccc(NC(=O)CN2C(=O)NC(C)(CC(C)C)C2=O)c(Br)c1 (centres undefined) | 8.09 µM (active) | 11.7 µM (inactive) | 35.9 µM (inactive) | – | – | –
COc1cc(OC)cc(C(=O)Nc2cc(N3CCCC3)ncn2)c1 | – | – | – | – | > 21.8 µM (inactive) | –
CCN(CC)c1cc(NC(=O)c2ccc(Br)o2)ncn1 | – | – | – | – | > 21.8 µM (inactive) | –
COc1ccc2nc3cc(Cl)ccc3c(Nc3ccc(O)c(CN4CCN(C)CC4)c3)c2c1 | – | – | – | 7.7 µM (active) | – | EC50 [7]: > 91.1 µM (inactive); EC50 [8]: > 69.5 µM (inactive); IC50 [9]: 45.4 µM (active); AC50 [10]: < 0.15 µM (active); EC50 [11]: > 91.1 µM (inactive); AC50 [12]: 2.51 µM (inconclusive); IC50 [13]: > 80 µM (inactive); CC50 [14]: 25.6 µM (active)

From ChEMBL document CHEMBL1201862, “PubChem BioAssay data set” (2004)
